Values after ≈ are worked out from the molar mass of the structure shown.
Experiments:
S. aureus (ATCC 29213) = test: Antibacterial activity, MIC50 by resazurin fluorometric measurement; type: cell-based, Staphylococcus aureus; conditions: Staphylococcus aureus, ATCC29213, means of triplicate assays
Protocol: (§1) Obtained compounds (2a–2j) were evaluated for antibacterial activity against Escherichia coli (E. coli) (ATCC 25922), Pseudomonas aeruginosa (P. aeruginosa) (ATCC 27853), […] (E. faecalis) (ATCC 2942), Bacillus subtilis (B. subtilis) (ATCC 6051), Staphylococcus aureus (S. aureus) (ATCC 29213), and Staphylococcus epidermidis (S. epidermidis) (ATCC 12228). MIC50 values were determined via fluorometric measurements, using resazurin solution.[13] Azithromycin was used as a standard drug in the antibacterial activity test.
(§2) The antimicrobial activity of obtained derivatives (2a–2j) was screened on six bacterial and three fungal strains according to the standard procedure of CLSI[20] as described in the previous study.[21] The antibacterial activities of the obtained compounds were screened against B. subtilis (ATCC 6051), E. coli (ATCC 25922), E. faecalis (ATCC 2942), P. aeruginosa (ATCC 27853), S. aureus (ATCC 29213), and S. epidermidis (ATCC 12228). The obtained compounds were evaluated for anticandidal activity against C. albicans (ATCC 24433), C. krusei (ATCC 6258), and C. parapsilopsis (ATCC 22019). For antibacterial activity, azithromycin was utilized as a reference drug, whereas voriconazole and fluconazole were used for anticandidal activity.

E. faecalis (ATCC 2942) = test: as above; type: cell-based, Enterococcus faecalis; conditions: Enterococcus faecalis, ATCC2942, means of triplicate assays
Protocol: as §1, §2

[1] = tested on: healthy mouse fibroblast cell (NIH3T3); test: MTT cytotoxicity test on healthy cells; type: cell-based; conditions: 24-h treatment, means of quartet assays ± SEM
Protocol: (§3) The MTT test was performed using 3 different cell lines for calculated IC50 values of obtained compounds. […] For this purpose, the cytotoxic effects of the compounds against the healthy mouse fibroblast cell (NIH3T3) were investigated.
(§4) The 3-(4,5-dimethylthiazol-2-yl)-2,5-diphenyltetrazolium salt reduction method, or MTT assay, is used to measure the metabolic activity of live cells. […] Doxorubicin is used as a therapeutic drug. MTT assays were carried out as previously explained.[19]

[2] = tested on: C. parapsilopsis (ATCC 22019); test: Anticandidal activity, MIC50 by resazurin fluorometric measurement; type: cell-based, Candida parapsilopsis; conditions: Candida, ATCC22019; means of triplicate assays
Protocol: (§5) Obtained compounds (2a–2j) were evaluated for anticandidal activity against Candida albicans (C. albicans) (ATCC 24433), Candida krusei (C. krusei) (ATCC 6258), and Candida parapsilopsis (C. parapsilopsis) (ATCC 22019). MIC50 values were determined via fluorometric measurements, using resazurin solution.[13] Voriconazole and fluconazole were used as a standard drug in the anticandidal activity test. […] In general, it is seen that the 2-methoxyethyl substituent increases the anticandidal activity.
as §2

[3] = tested on: S. epidermidis (ATCC 12228); test: Antibacterial activity, MIC50 by resazurin fluorometric measurement; type: cell-based, Staphylococcus epidermidis; conditions: Staphylococcus epidermidis, ATCC12228, means of triplicate assays; read-out: MIC50 S. epidermis
Protocol: as §1, §2

A549 cell line [4] = test: MTT cytotoxicity test; type: cell-based; conditions: Homo sapiens, A549, 24 h, MTT, 24-h treatment, means of quartet assays ± SEM
Protocol: as §3, §4

HepG2 cell line = test: MTT cytotoxicity test; type: cell-based; conditions: Homo sapiens, 24-h treatment, means of quartet assays ± SEM
Protocol: as §3, §4

C. albicans (ATCC 24433) = test: Anticandidal activity, MIC50 by resazurin fluorometric measurement; type: cell-based, Candida albicans; conditions: Candida albicans, ATCC24433, means of triplicate assays
Protocol: as §5, §2

C. krusei (ATCC 6258) = test: as above; type: cell-based, Candida krusei; conditions: Pichia kudriavzevii, ATCC6258, means of triplicate assays
Protocol: as §5, §2

E. coli (ATCC 25922) = test: Antibacterial activity, MIC50 by resazurin fluorometric measurement; type: cell-based; conditions: Escherichia coli, ATCC25922; means of triplicate assays
Protocol: as §1, §2

[5] = tested on: P. aeruginosa (ATCC 27853); test: as above; type: cell-based; conditions: Pseudomonas aeruginosa, ATCC27853; means of triplicate assays
Protocol: as §1, §2

B. subtilis (ATCC 6051) = test: as above; type: cell-based; conditions: Bacillus subtilis, ATCC6051; means of triplicate assays
Protocol: as §1, §2

carcinogenic cell lines [6] = test: Flow cytometric analysis of apoptosis and necrosis (Apoptosis, Necrosis and Healthy Cell Quantitation Kit Plus); type: cell-based; conditions: IC50 concentration, 24-h incubation
carcinogenic cell lines [7] = test: as above; type: cell-based; conditions: IC50 concentration, 24-h incubation; remark: listed apart in the source
From the text: The flow cytometer was used to calculate the percentages of apoptotic and necrotic cells in four different quadrants, which are denoted by the letters “UL, UR, LL, LR” (Upper Left, Upper Right, Lower Left, Lower Right). The four distinct quadrants in the diagram represent the following areas, respectively: Apoptotic or early apoptotic cells, LR: CF488A+/(EthD-III)-; necrotic or late apoptotic cells, […]: CF488A+/(EthD-III)+; intact cells, LL: CF488A/(EthD-III); and dead or necrotic cells, UR: CF488A+/(EthD-III)+. The IC50 concentration of each substance was used in administration.
Death pathway of the carcinogenic cell lines was detected by Apoptosis, Necrosis and Healthy Cell Quantitation Kit Plus (Cat: 30066, Biotium, Hayward, CA, USA)[22] as reported in the manufacturer’s instruction. The IC50 values for doxorubicin and compound 2j were applied. Cells were collected by centrifugation at 1200 rpm for 5 min following a 24-h incubation period. It was washed 2 times with PBS, centrifuged and turned into pellets. One ×10^6 cells/mL of annexin were suspended in V-FITC binding buffer. Ethidium iodide ([…]), Hoestch 1 mL, and annexin V-FITC ([…]) were added to stain cells and using the CytoFLEX Flow Cytometer (Beckman Coulter Life Sciences, USA) and CytExpert for CytoFLEX Acquisition and Analysis Software Version 2.2.0.97 instrument. Fluorescence measurements were made using a flow cytometer in accordance with the instrument procedure.

A549 cell line [8] = test: Analysis of mitochondrial membrane potential (MMP) by flow cytometry, JC-1 dye; type: cell-based; conditions: A549, IC50 concentration, 24-h incubation
Protocol: After a 24-h incubation period, mitochondrial membrane potential was measured with JC-1 dye.
The BD Mitoscreen Mitochondrial Membrane Potential Detection JC-1 Kit (available from ref ([23])) was used for the MMP test. First, A549 cells were seeded in 25 mL flasks and incubated for 24 h in a 5% CO2 incubator. […] At the end of this period, cells were collected and centrifuged in accordance with the kit contents. After the upper part was removed, JC-1 dye was added and incubated at 37 °C for 10–15 min. At the end of the period, it was washed 2 times with washing solution and reading was done with the appropriate procedure using the CytoFLEX Flow Cytometer (Beckman Coulter Life Sciences, USA) and CytExpert for CytoFLEX Acquisition and Analysis Software Version 2.2.0.97.

Row | SMILES | MIC50 (S. aureus (ATCC 29213)) [µg/mL] | MIC50 (E. faecalis (ATCC 2942)) [µg/mL] | IC50 [1] [µM] | MIC50 [2] [µg/mL] | MIC50 [3] [µg/mL] | IC50 (A549 cell line [4]) [µM] | IC50 (HepG2 cell line) [µM] | MIC50 (C. albicans (ATCC 24433)) [µg/mL] | MIC50 (C. krusei (ATCC 6258)) [µg/mL] | MIC50 (E. coli (ATCC 25922)) [µg/mL] | MIC50 [5] [µg/mL] | MIC50 (B. subtilis (ATCC 6051)) [µg/mL] | melting point [°C] | late apoptosis (Q1-UR) (carcinogenic cell lines [6]) [%] | early apoptosis (Q1-LR) (carcinogenic cell lines [7]) [%] | intact cells (Q1-LL) (carcinogenic cell lines [7]) [%] | necrosis (Q1-UL) (carcinogenic cell lines [7]) [%] | rate of apoptosis (early + late apoptosis) (carcinogenic cell lines [7]) [%] | mitochondrial membrane potential (P3) (A549 cell line [8]) [%]
1 | COCCN1CCN(c2ccc(C(=O)C=Cc3cccc4ccccc34)cc2)CC1 [2e, 1-(4-(4-(2-Methoxyethyl)piperazin-1-yl)phenyl)-3-(naphthalen-1-yl)prop-2-en-1-one] | 62.5 (≈ 156 µM) | 31.3 (≈ 78.1 µM) | 19.8 ± 0.81 | > 100 | 31.3 (≈ 78.1 µM) | 20.6 ± 0.52 | 45.5 ± 2.5 | 15.6 (≈ 38.9 µM) | 62.5 (≈ 156 µM) | > 100 | 62.5 (≈ 156 µM) | > 100 | 136.2 to 137.8 | – | – | – | – | – | –
2 | CN1CCN(c2ccc(C(=O)C=Cc3ccc4ccccc4c3)cc2)CC1 [2f, 1-(4-(4-Methylpiperazin-1-yl)phenyl)-3-(naphthalen-2-yl)prop-2-en-1-one] | 31.3 (≈ 87.8 µM) | 31.3 (≈ 87.8 µM) | 25.6 ± 0.26 | > 100 | 15.6 (≈ 43.8 µM) | 35.7 ± 0.37 | 29.7 ± 0.79 | 62.5 (≈ 175 µM) | > 100 | > 100 | > 100 | > 100 | 204.5 to 206.2 | – | – | – | – | – | –
3 | C[C@@H](c1ncncc1F)[C@](O)(Cn1cncn1)c1ccc(F)cc1F [SD2, Voriconazole, reference compound] | – | – | – | 1.95 (≈ 5.58 µM) | – | – | – | 3.9 (≈ 11.2 µM) | 3.9 (≈ 11.2 µM) | – | – | – | – | – | – | – | – | – | –
4 | CCN1CCN(c2ccc(C(=O)C=Cc3cccc4ccccc34)cc2)CC1 [2b, 1-(4-(4-Ethylpiperazin-1-yl)phenyl)-3-(naphthalen-1-yl)prop-2-en-1-one] | 31.3 (≈ 84.5 µM) | 31.3 (≈ 84.5 µM) | 22.9 ± 0.76 | > 100 | 31.3 (≈ 84.5 µM) | > 100 | 45.8 ± 8.4 | 15.6 (≈ 42.1 µM) | 62.5 (≈ 169 µM) | > 100 | 62.5 (≈ 169 µM) | > 100 | 164.6 to 166.1 | – | – | – | – | – | –
5 | COc1cccc2c1C(=O)c1c(O)c3c(c(O)c1C2=O)C[C@@](O)(C(=O)CO)C[C@@H]3O[C@H]1C[C@H](N)[C@H](O)[C@H](C)O1 [SD4, Doxorubicin, reference compound] | – | – | > 100 | – | – | 2.97 ± 0.16 | 9.47 ± 1.49 | – | – | – | – | – | – | 8.84 | 8.55 | 80.85 | 1.76 | 17.4 | 30.270
6 | CCN1CCN(c2ccc(C(=O)C=Cc3ccc4ccccc4c3)cc2)CC1 [2g, 1-(4-(4-Ethylpiperazin-1-yl)phenyl)-3-(naphthalen-2-yl)prop-2-en-1-one] | > 100 | 31.3 (≈ 84.5 µM) | 52.4 ± 2.57 | > 100 | 62.5 (≈ 169 µM) | 39.1 ± 1.24 | 35.6 ± 0.98 | 31.3 (≈ 84.5 µM) | > 100 | > 100 | > 100 | > 100 | 196.5 to 198 | – | – | – | – | – | –
